Entries after “also recorded” stand apart in the source; their conditions may differ.
Columns and labels:
BDF1 mice = assay: Add-on study: does UTL-5g increase platelet count by itself (Example 3); format: in vivo
Description: Gp 1: medium (saline). Gp 2: saline followed by cisplatin (2.5 mg/kg) 30 min later. Gp 3: UTL-5g (15 mg/kg) followed by cisplatin 30 min later. Gp 4: UTL-5g (30 mg/kg) followed by cisplatin (2.5 mg/kg) 30 min later. Gp 5: UTL-5g (60 mg/kg) followed by cisplatin (2.5 mg/kg) 30 min later. Gp 6: amifostine (200 mg/kg) followed by cisplatin (2.5 mg/kg) 30 min later. Gp 7: saline followed by cisplatin (5 mg/kg) 30 min later. Gp 8: UTL-5g (60 mg/kg) followed by medium (saline) 30 min later. Gp 1-Gp 6 were daily ×5, but Gp 7 was by single dose on day 0 only. StDev is shown for each Gp (n=5 for each group except n=4 for Gp 7). * P<0.05, ** p<0.005 vs. medium control by Student's t-t (two-tailed).
To further investigate whether UTL-5g by itself would increase platelet count, the following small add-on study was conducted: • Gp 1: medium (saline) followed by medium (saline) 30 min later (same as Gp 1 before) • Gp 2: medium (saline) followed by cisplatin (2.5 mg/kg) 30 min later (same as Gp 2 before) • Gp 5: UTL-5g (60 mg/kg) followed by cisplatin (2.5 mg/kg) 30 min later (Same as Gp 5 before) • Gp 8: UTL-5g alone (60 mg/kg) followed by medium (saline) 30 min later (New Gp)

[1] = system: human colon cancer cells (HCT-15); assay: Effect of UTL-5g pretreatment on antitumor effect of cisplatin, HCT-15 tumors in SCID mice (Example 4); format: in vivo
Description: FIG. 7. Effect of UTL-5g pre-treatment on the antitumor effect of cisplatin Group 1, saline, daily ×5 (control); Group 2, cisplatin (2.5 mg/kg) in saline, daily ×5; Group 3, UTL-5g (60 mg/kg) followed by cisplatin (2.5 mg/kg) 30 min later, daily ×5. […] Gp: Group
In order to qualify UTL-5g as a chemoprotective agent, a therapeutic assessment was conducted to evaluate the effect of UTL-5g on the efficacy of cisplatin. Briefly, 25 SCID mice were randomly divided into 5 groups as below. • Gp 1: Saline daily ×5 (control) • Gp 2: Cisplatin 0.2 mg/mL (2.5 mg/kg), daily ×5 • Gp 3: UTL-5g (60 mg/kg) followed by cisplatin (2.5 mg/kg) 30 min later, daily ×5 • Gp 4: Cisplatin 0.4 mg/mL ([…]) in saline, day 1 only • Gp 5: UTL-5g (60 mg/kg) followed by cisplatin (5 mg/kg) 30 min later, day 1 only
Cisplatin was dissolved in saline. UTL-5g was prepared in DMSO/Cremophor/propylene glycol/saline as described in previous section. All injections were ip and the injection volume was 0.25 mL. Three days before treatment (Day −2), human colon cancer cells (HCT-15) were injected subcutaneously and bilaterally (1×10^6 cells per site per mouse) in each SCID mouse in all groups and tumor sizes were measured by a caliper every 2-3 days and the animals were sacrificed when tumor reached 1,200 mm^3.
The % T/C value is used here as the end-point. […]

apoptotic liver cells = assay: TUNEL assay for apoptotic liver cells after liver irradiation (Example 8); format: in vivo, mice; conditions: for numbers of TUNEL positive cells induced by irradiation: 15 Gy, relative to non-irradiated controls, irradiated vehicle 4.1
Description: Mice were pre-treated with various doses of UTL-5g (7.5, 15, 30, and 60 mg/kg, i.p.) or control vehicle at 1 hr prior to liver radiation with 15 Gy. […] Representative liver sections showing TUNEL positive cells (green) counter-stained with […] (4′-6-diamidino-2-phenylindole) for nuclei under fluorescent microscope (40×) (6B). RT: radiation treatment.
To further analyze the radioprotective effect of UTL-5g, we examined the number of liver apoptotic cells by in situ TUNEL staining At the end of treatment, liver tissue sections were prepared, fixed and stained with TUNEL staining for apoptotic cells. There were “spontaneous” apoptotic liver cells in control animals as detected by TUNEL staining (20/five random fields), approximately 0.2% of total liver cells. […] The radioprotective effect of UTL-5g was dose-dependent.

Cc1cc(C(=O)Nc2ccc(Cl)cc2Cl)no1 [UTL-5g]
platelet count (BDF1 mice; UTL-5g 60 mg/kg followed 30 min later by cisplatin 2.5 mg/kg or by saline): significantly increased platelet count
WBC, protective effect (BDF1 mice; UTL-5g 60 mg/kg followed by cisplatin 2.5 mg/kg or saline): no significant protective effect
platelet production, UTL-5g by itself (BDF1 mice; UTL-5g alone 60 mg/kg followed by saline, mice not treated by cisplatin): stimulated the production of platelets; also recorded: increased platelet counts
effect on efficacy of cisplatin ([1]; UTL-5g 60 mg/kg 30 min before cisplatin 2.5 mg/kg, daily ×5 (Gp 3 vs Gp 2)): increased the efficacy of cisplatin; also recorded: did not have tumor-protective effect and actually increased the efficacy of cisplatin
enhancement of efficacy of cisplatin ([1]; UTL-5g 60 mg/kg 30 min before cisplatin 5 mg/kg, single dose (Gp 5 vs Gp 4)): not observed
TUNEL positive cells, protective effect (apoptotic liver cells; UTL-5g 7.5 mg/kg i.p. 1 hr prior to 15 Gy, liver 2 hr after): no significant protective effect
numbers of TUNEL positive cells induced by irradiation (apoptotic liver cells; UTL-5g 15 mg/kg): 3.3 fold
numbers of TUNEL positive cells induced by irradiation (apoptotic liver cells; UTL-5g 30 mg/kg): 1.8 fold
numbers of TUNEL positive cells induced by irradiation (apoptotic liver cells; UTL-5g 60 mg/kg): 1.4 fold
number of apoptotic cells in liver, non-irradiated animals (apoptotic liver cells; UTL-5g alone at 30 and 60 mg/kg, no irradiation): slightly increased the number of apoptotic cells

From patent publication US20120082736A1, “Small-molecule TNF modulator to reduce the side effects of chemotherapy and radiotherapy” (GeneBlue Corporation, priority 2010, published 2012)
